Source: article PMC5218480 (PLoS ONE, 2017)

System: MV-4-11 cells
Assay: Gene expression microarray analysis (Affymetrix PrimeView) and GSEA
Format: cell-based, human
Set-up: RFU PODN (11730768_x_at) / Fold change /veh PODN (11730768_x_at) / RFU LINC00158 (11744669_a_at) / Fold change /veh LINC00158 (11744669_a_at) / RFU DUSP10 (11751237_a_at) / Fold change /veh DUSP10 (11751237_a_at) / RFU ID3 (11757404_x_at) / Fold change /veh ID3 (11757404_x_at) / RFU PLEKHG5 (11737974_s_at) / Fold change /veh PLEKHG5 (11737974_s_at) / RFU LRRC4B (11730491_at) / Fold change /veh LRRC4B (11730491_at) / RFU GIMAP4 (11747438_a_at) / Fold change /veh GIMAP4 (11747438_a_at) / RFU KRT8 (11758183_x_at) / Fold change /veh KRT8 (11758183_x_at) / RFU CNN1 (11734310_a_at) / Fold change /veh CNN1 (11734310_a_at) / RFU VPS37D (11726825_at) / Fold change /veh VPS37D (11726825_at) / RFU C10orf10 (11716522_x_at) / Fold change /veh C10orf10 (11716522_x_at) / RFU KIR2DL2 /// KIR2DL4 /// KIR2DL5A /// KIR2DL5B /// KIR2DS1 /// KIR2DS2 /// KIR2DS3 /// KIR2DS4 /// KIR3DL3 /// KIR3DL3 /// KIR3DS1 (11738374_at) / Fold change /veh KIR2DL2 /// KIR2DL4 /// KIR2DL5A /// KIR2DL5B /// KIR2DS1 /// KIR2DS2 /// KIR2DS3 /// KIR2DS4 /// KIR3DL3 /// KIR3DL3 /// KIR3DS1 (11738374_at) / RFU C1QL1 (11718748_at) / Fold change /veh C1QL1 (11718748_at) / RFU TMPRSS4 (11747572_a_at) / Fold change /veh TMPRSS4 (11747572_a_at) / RFU HAMP (11756126_x_at) / Fold change /veh HAMP (11756126_x_at) / RFU RNFT2 (11725882_a_at) / Fold change /veh RNFT2 (11725882_a_at) / RFU NR4A2 (11747474_a_at) / Fold change /veh NR4A2 (11747474_a_at) / RFU ABCC12 (11746883_a_at) / Fold change /veh ABCC12 (11746883_a_at) / RFU TMEM136 (11760407_x_at) / Fold change /veh TMEM136 (11760407_x_at) / RFU CLDN22 /// WWC2 (11732394_at) / Fold change /veh CLDN22 /// WWC2 (11732394_at) / RFU HLA-DPB1 (11760878_x_at) / Fold change /veh HLA-DPB1 (11760878_x_at) / RFU SPINT1 (11716480_a_at) / Fold change /veh SPINT1 (11716480_a_at) / RFU GAP43 (11754022_s_at) / Fold change /veh GAP43 (11754022_s_at) / RFU A4GNT (11735810_at) / Fold change /veh A4GNT (11735810_at) / RFU PRB3 (11715151_x_at) / Fold change /veh PRB3 (11715151_x_at) / RFU TUBB4B (11761932_at) / Fold change /veh TUBB4B (11761932_at) / RFU CAPN14 (11732068_a_at) / Fold change /veh CAPN14 (11732068_a_at) / RFU TMCC2 (11721928_a_at) / Fold change /veh TMCC2 (11721928_a_at) / RFU IRGQ (11745062_a_at) / Fold change /veh IRGQ (11745062_a_at) / RFU FAM174B (11720279_a_at) / Fold change /veh FAM174B (11720279_a_at) / RFU TMPRSS4 (11748680_a_at) / Fold change /veh TMPRSS4 (11748680_a_at) / RFU FAM212B (11763350_a_at) / Fold change /veh FAM212B (11763350_a_at) / RFU PLEKHG5 (11743358_a_at) / Fold change /veh PLEKHG5 (11743358_a_at) / RFU ZSCAN30 (11745921_a_at) / Fold change /veh ZSCAN30 (11745921_a_at) / RFU CMKLR1 (11741424_a_at) / Fold change /veh CMKLR1 (11741424_a_at) / RFU LOC101060620 /// MAPK8IP1 (11723275_at) / Fold change /veh LOC101060620 /// MAPK8IP1 (11723275_at) / RFU SPTSSB (11747773_x_at) / Fold change /veh SPTSSB (11747773_x_at) / RFU PRSS12 (11739890_at) / Fold change /veh PRSS12 (11739890_at) / RFU BIN1 (11741810_x_at) / Fold change /veh BIN1 (11741810_x_at) / RFU WNT11 (11732464_a_at) / Fold change /veh WNT11 (11732464_a_at) / RFU C10orf10 (11716521_a_at) / Fold change /veh C10orf10 (11716521_a_at) / RFU C5orf56 (11738089_at) / Fold change /veh C5orf56 (11738089_at) / RFU CYB561 (11721691_x_at) / Fold change /veh CYB561 (11721691_x_at) / RFU ANKRD19P (11752326_a_at) / Fold change /veh ANKRD19P (11752326_a_at) / RFU OR2T12 /// OR2T33 /// OR2T8 (11738714_s_at) / Fold change /veh OR2T12 /// OR2T33 /// OR2T8 (11738714_s_at) / RFU VCAN (11748164_a_at) / Fold change /veh VCAN (11748164_a_at) / RFU JSRP1 (11732532_at) / Fold change /veh JSRP1 (11732532_at) / RFU KRTAP10-11 (11738290_x_at) / Fold change /veh KRTAP10-11 (11738290_x_at) / RFU MYO3A (11730013_a_at) / Fold change /veh MYO3A (11730013_a_at) / RFU EBF3 (11725865_a_at) / Fold change /veh EBF3 (11725865_a_at) / RFU CAMK2N1 (11719241_x_at) / Fold change /veh CAMK2N1 (11719241_x_at) / RFU C5orf56 (11738088_a_at) / Fold change /veh C5orf56 (11738088_a_at) / RFU OLFML3 (11715873_a_at) / Fold change /veh OLFML3 (11715873_a_at) / RFU LOC100653217 /// NTM (11731650_a_at) / Fold change /veh LOC100653217 /// NTM (11731650_a_at) / RFU MAPK11 (11762145_a_at) / Fold change /veh MAPK11 (11762145_a_at) / RFU FIZ1 (11724087_x_at) / Fold change /veh FIZ1 (11724087_x_at) / RFU OASL (11726364_x_at) / Fold change /veh OASL (11726364_x_at) / RFU SOX15 (11748057_x_at) / Fold change /veh SOX15 (11748057_x_at) / RFU CD79A (11719716_a_at) / Fold change /veh CD79A (11719716_a_at) / RFU HIST1H1D (11736915_at) / Fold change /veh HIST1H1D (11736915_at) / RFU CASKIN2 (11723855_a_at) / Fold change /veh CASKIN2 (11723855_a_at) / RFU LOC730098 (11760151_x_at) / Fold change /veh LOC730098 (11760151_x_at) / RFU OR4N2 (11742367_at) / Fold change /veh OR4N2 (11742367_at) / RFU PRRT2 (11749266_a_at) / Fold change /veh PRRT2 (11749266_a_at) / RFU SNX32 (11753110_a_at) / Fold change /veh SNX32 (11753110_a_at) / RFU CDHR5 (11726645_a_at) / Fold change /veh CDHR5 (11726645_a_at) / RFU RCAN1 (11760418_a_at) / Fold change /veh RCAN1 (11760418_a_at) / RFU FAM167A (11723789_a_at) / Fold change /veh FAM167A (11723789_a_at) / RFU FAM26E (11764081_at) / Fold change /veh FAM26E (11764081_at) / RFU ISYNA1 (11749810_s_at) / Fold change /veh ISYNA1 (11749810_s_at) / RFU ACY1 (11761880_at) / Fold change /veh ACY1 (11761880_at) / RFU 11764098_at / Fold change /veh 11764098_at / RFU SAMD14 (11745864_x_at) / Fold change /veh SAMD14 (11745864_x_at) / RFU NPB (11741838_a_at) / Fold change /veh NPB (11741838_a_at) / RFU TMPRSS6 (11731388_a_at) / Fold change /veh TMPRSS6 (11731388_a_at) / RFU KRTAP10-2 (11738614_at) / Fold change /veh KRTAP10-2 (11738614_at) / RFU ARHGAP8 /// PRR5-ARHGAP8 (11727945_x_at) / Fold change /veh ARHGAP8 /// PRR5-ARHGAP8 (11727945_x_at) / RFU KRTAP5-7 /// NADSYN1 (11734609_at) / Fold change /veh KRTAP5-7 /// NADSYN1 (11734609_at) / RFU RASL12 (11751679_a_at) / Fold change /veh RASL12 (11751679_a_at) / RFU CDKN2B (11736163_a_at) / Fold change /veh CDKN2B (11736163_a_at) / RFU PRF1 (11729649_at) / Fold change /veh PRF1 (11729649_at) / RFU, ZNF638 /// ZNF638-IT1 / Fold change vs veh, ZNF638 /// ZNF638-IT1 / RFU, PANK3 / Fold change vs veh, PANK3 / RFU, SH3YL1 / Fold change vs veh, SH3YL1 / RFU, ZEB2 / Fold change vs veh, ZEB2 / RFU, NRIP1 / Fold change vs veh, NRIP1 / RFU, PTTG1IP / Fold change vs veh, PTTG1IP / RFU, CAPN2 / Fold change vs veh, CAPN2 / RFU, MED14 / Fold change vs veh, MED14 / RFU, SNORA58 / Fold change vs veh, SNORA58 / RFU, C1orf63 / Fold change vs veh, C1orf63 / RFU, LRRFIP1 / Fold change vs veh, LRRFIP1 / RFU, NDUFAF7 / Fold change vs veh, NDUFAF7 / RFU, SLC12A2 / Fold change vs veh, SLC12A2 / RFU, IBTK / Fold change vs veh, IBTK / RFU, ESF1 / Fold change vs veh, ESF1 / Fold change vs veh, TMEM50B / RFU, TAOK1 / Fold change vs veh, TAOK1 / RFU, ACBD3 / Fold change vs veh, ACBD3 / RFU, TMA16 / Fold change vs veh, TMA16 / RFU, RWDD3 / Fold change vs veh, RWDD3 / RFU, BCAT1 / Fold change vs veh, BCAT1 / RFU, EDEM3 / Fold change vs veh, EDEM3 / RFU, TMEM33 / Fold change vs veh, TMEM33 / RFU, WDR75 / Fold change vs veh, WDR75 / RFU, AHCTF1 / Fold change vs veh, AHCTF1 / RFU, TFRC / Fold change vs veh, TFRC / RFU, ZDHHC17 / Fold change vs veh, ZDHHC17 / RFU, NOM1 / Fold change vs veh, NOM1 / RFU, ARL8B / Fold change vs veh, ARL8B / RFU, ZBTB11 / Fold change vs veh, ZBTB11 / RFU, TAMM41 / Fold change vs veh, TAMM41 / RFU, KIAA1704 /// LOC100996395 / Fold change vs veh, KIAA1704 /// LOC100996395 / RFU, ING1 / Fold change vs veh, ING1 / RFU, TRMT61B / Fold change vs veh, TRMT61B / RFU, FUBP3 / Fold change vs veh, FUBP3 / RFU, TP53 / Fold change vs veh, TP53 / RFU, TNKS2 / Fold change vs veh, TNKS2 / RFU, ZFP14 / Fold change vs veh, ZFP14 / RFU, ACTR2 / Fold change vs veh, ACTR2 / RFU, PPP3R1 / Fold change vs veh, PPP3R1 / RFU, PIK3R1 / Fold change vs veh, PIK3R1 / RFU, HNRNPA1 / Fold change vs veh, HNRNPA1 / RFU, RNF170 / Fold change vs veh, RNF170 / RFU, ZNF28 / Fold change vs veh, ZNF28 / RFU, RNGTT / Fold change vs veh, RNGTT / RFU, OGT / Fold change vs veh, OGT / RFU, BRD1 / Fold change vs veh, BRD1 / RFU, MARS / Fold change vs veh, MARS / RFU, ZNF655 / Fold change vs veh, ZNF655 / RFU, FAHD1 / Fold change vs veh, FAHD1 / RFU, BDP1 / Fold change vs veh, BDP1 / RFU, LRRCC1 / Fold change vs veh, LRRCC1 / RFU, ARID1A / Fold change vs veh, ARID1A / RFU, ZNF146 / Fold change vs veh, ZNF146 / RFU, ZNF330 / Fold change vs veh, ZNF330 / RFU, GPN3 / Fold change vs veh, GPN3 / RFU, C9orf123 / Fold change vs veh, C9orf123 / RFU, N4BP2L2 / Fold change vs veh, N4BP2L2 / RFU, ARFIP1 / Fold change vs veh, ARFIP1 / RFU, FAM179B / Fold change vs veh, FAM179B / RFU, BCL10 / Fold change vs veh, BCL10 / RFU, UHRF1BP1L / Fold change vs veh, UHRF1BP1L / RFU, BET1 / Fold change vs veh, BET1 / RFU, CNOT2 / Fold change vs veh, CNOT2 / RFU, ZNF268 / Fold change vs veh, ZNF268 / Fold change vs veh, ZNF507 / RFU, DGCR2 / Fold change vs veh, DGCR2 / RFU, WDSUB1 / Fold change vs veh, WDSUB1 / Fold change vs veh, HSP90B1 /// MIR3652 / RFU, ADSS / Fold change vs veh, ADSS / RFU, GK / Fold change vs veh, GK / RFU, ZNF148 / Fold change vs veh, ZNF148 / RFU, TAF9 / Fold change vs veh, TAF9 / RFU, SLC1A5 / Fold change vs veh, SLC1A5 / RFU, SLMO2 / Fold change vs veh, SLMO2 / RFU, ABCC4 / Fold change vs veh, ABCC4 / RFU, LOC101060439 /// RAP1B / Fold change vs veh, LOC101060439 /// RAP1B / RFU, RFX7 / Fold change vs veh, RFX7 / RFU, GTPBP10 / Fold change vs veh, GTPBP10 / RFU, CNEP1R1 / Fold change vs veh, CNEP1R1 / RFU, BIVM-ERCC5 /// ERCC5 / Fold change vs veh, BIVM-ERCC5 /// ERCC5 / RFU, ILF3 / Fold change vs veh, ILF3 / RFU 11762660_at / Fold change /veh 11762660_at / RFU VCAN (11757783_s_at) / Fold change /veh VCAN (11757783_s_at) / RFU DDX43 (11728927_at) / Fold change /veh DDX43 (11728927_at) / RFU KRT8 (11758188_x_at) / Fold change /veh KRT8 (11758188_x_at) / RFU NKD1 (11759106_at) / Fold change /veh NKD1 (11759106_at) / RFU SRD5A1 (11742802_a_at) / Fold change /veh SRD5A1 (11742802_a_at) / RFU TPSAB1 /// TPSB2 (11721975_s_at) / Fold change /veh TPSAB1 /// TPSB2 (11721975_s_at) / RFU GSTM3 (11746129_a_at) / Fold change /veh GSTM3 (11746129_a_at) / RFU IL23R (11737362_x_at) / Fold change /veh IL23R (11737362_x_at) / RFU TMEM51 (11727254_a_at) / Fold change /veh TMEM51 (11727254_a_at) / RFU PIWIL2 (11732686_x_at) / Fold change /veh PIWIL2 (11732686_x_at) / RFU ORM1 (11744905_x_at) / Fold change /veh ORM1 (11744905_x_at) / RFU CCDC152 (11743942_at) / Fold change /veh CCDC152 (11743942_at) / RFU ECM1 (11717891_a_at) / Fold change /veh ECM1 (11717891_a_at) / RFU IL23R (11748794_a_at) / Fold change /veh IL23R (11748794_a_at) / RFU TNFAIP8L3 (11732012_x_at) / Fold change /veh TNFAIP8L3 (11732012_x_at) / RFU MBOAT4 (11741988_at) / Fold change /veh MBOAT4 (11741988_at) / RFU 11764193_at / Fold change /veh 11764193_at / RFU TMEM53 (11763286_at) / Fold change /veh TMEM53 (11763286_at) / RFU MAGEB2 (11727129_at) / Fold change /veh MAGEB2 (11727129_at) / RFU TMEM200A (11744735_a_at) / Fold change /veh TMEM200A (11744735_a_at) / RFU CCDC152 (11751479_a_at) / Fold change /veh CCDC152 (11751479_a_at) / RFU FAM211A (11726209_a_at) / Fold change /veh FAM211A (11726209_a_at) / RFU RGS16 (11746705_a_at) / Fold change /veh RGS16 (11746705_a_at) / RFU VCAN (11755009_s_at) / Fold change /veh VCAN (11755009_s_at) / RFU RHOB (11743442_s_at) / Fold change /veh RHOB (11743442_s_at) / RFU RGS16 (11720943_a_at) / Fold change /veh RGS16 (11720943_a_at) / RFU RGS16 (11720944_at) / Fold change /veh RGS16 (11720944_at) / RFU, VPS4B / Fold change vs veh, VPS4B / RFU, CREB1 / Fold change vs veh, CREB1 / RFU, DNAJC13 / Fold change vs veh, DNAJC13 / RFU, GNAQ / Fold change vs veh, GNAQ / RFU, CDK5R1 / Fold change vs veh, CDK5R1 / RFU, ZRANB3 / Fold change vs veh, ZRANB3 / RFU, CUL4A / Fold change vs veh, CUL4A / RFU, CCNY / Fold change vs veh, CCNY / RFU, UFL1 / Fold change vs veh, UFL1 / RFU, COG3 / Fold change vs veh, COG3 / RFU, DIAPH2 / Fold change vs veh, DIAPH2 / RFU, SKA2 / Fold change vs veh, SKA2 / RFU, AFF3 / Fold change vs veh, AFF3 / RFU, LMF1 / Fold change vs veh, LMF1 / RFU, IPO11 / Fold change vs veh, IPO11 / RFU, DFFB / Fold change vs veh, DFFB / RFU, FOXP1 / Fold change vs veh, FOXP1 / RFU, CARD8 / Fold change vs veh, CARD8 / RFU, STRN3 / Fold change vs veh, STRN3 / RFU, ADK / Fold change vs veh, ADK / RFU, RASSF2 / Fold change vs veh, RASSF2 / RFU, WIPF1 / Fold change vs veh, WIPF1 / RFU, LARP1B / Fold change vs veh, LARP1B / RFU, RASA1 / Fold change vs veh, RASA1 / RFU, RB1 / Fold change vs veh, RB1 / RFU, PPFIA1 / Fold change vs veh, PPFIA1 / RFU, MAT2A / Fold change vs veh, MAT2A / RFU, CCT5 / Fold change vs veh, CCT5 / RFU, WDR92 / Fold change vs veh, WDR92 / RFU, CUX1 / Fold change vs veh, CUX1 / RFU, TTC7A / Fold change vs veh, TTC7A / RFU, TMEM135 / Fold change vs veh, TMEM135 / RFU, DEPTOR / Fold change vs veh, DEPTOR / RFU, CPM / Fold change vs veh, CPM / RFU, DNAJB6 / Fold change vs veh, DNAJB6 / RFU, CACNA2D3 / Fold change vs veh, CACNA2D3 / RFU, DTX4 / Fold change vs veh, DTX4 / RFU, TFCP2 / Fold change vs veh, TFCP2 / RFU, GMCL1 /// GMCL1P1 / Fold change vs veh, GMCL1 /// GMCL1P1 / RFU, AEBP2 / Fold change vs veh, AEBP2 / RFU, SNHG1 /// SNORD22 /// SNORD25 /// SNORD26 /// SNORD27 /// SNORD28 /// SNORD29 /// SNORD31 / Fold change vs veh, SNHG1 /// SNORD22 /// SNORD25 /// SNORD26 /// SNORD27 /// SNORD28 /// SNORD29 /// SNORD31 / Fold change (Aza/veh), C12orf56 (ProbeSet 11735607_a_at) / Fold change (ACY-1035/veh), C12orf56 (ProbeSet 11735607_a_at) / Fold change (Aza/veh), FGFR1OP (ProbeSet 11751329_s_at) / Fold change (ACY-1035/veh), FGFR1OP (ProbeSet 11751329_s_at) / Fold change (Aza/veh), VPS36 (ProbeSet 11739960_a_at) / Fold change (ACY-1035/veh), VPS36 (ProbeSet 11739960_a_at) / RFU SYPL1 (11715823_x_at) / Fold change /veh SYPL1 (11715823_x_at) / RFU IGFBP7 (11715501_s_at) / Fold change /veh IGFBP7 (11715501_s_at) / RFU REEP3 (11722064_at) / Fold change /veh REEP3 (11722064_at) / RFU IGLL1 (11728026_x_at) / Fold change /veh IGLL1 (11728026_x_at): dose or concentration left out as unconfirmed
Settings: MV-4-11 cells, 48 hours

## Nc1ncn([C@@H]2O[C@H](CO)[C@@H](O)[C@H]2O)c(=O)n1 [azacitidine]
  RFU SRD5A1 (11742802_a_at): 51.32 RFU
